Assay results reported in ChEMBL document CHEMBL1151063, “Synthesis and antibacterial activity of 2-functionalized-vinyl 1-methylcarbapenems and related compounds” (1993).
Converted amounts (≈) assume the structure as drawn.

Columns and labels:
Format in all cases: functional
[1] = test system: Escherichia coli; experiment: Antibacterial activity against Escherichia coli NIHJ JC-2
[2] = test system: Pseudomonas aeruginosa; experiment: Antibacterial activity against Pseudomonas aeruginosa SR24
[3] = test system: Enterococcus faecalis; experiment: Antibacterial activity against Streptococcus faecalis SR 1004
[4] = test system: Staphylococcus aureus; experiment: Antibacterial activity against Staphylococcus aureus FDA JC-1
[5] = test system: Enterobacter cloacae; experiment: Minimum inhibitory concentration for antibacterial activity against Enterobacter cloacae AI 3047
[6] = test system: Proteus vulgaris; experiment: Minimum inhibitory concentration for antibacterial activity against Proteus vulgaris CN-329, activity expressed as MIC
[7] = test system: Serratia marcescens; experiment: Minimum inhibitory concentration for antibacterial activity against Serratia marcescens A13880
[8] = test system: Staphylococcus aureus; experiment: Minimum inhibitory concentration for antibacterial activity against high resistant group of methicillin-resistant Staphylococcus aureus SR-3626(HR)
[9] = test system: Staphylococcus aureus; experiment: Minimum inhibitory concentration for antibacterial activity against low resistant group of methicillin-resistant Staphylococcus aureus SR-3131(LR)
[10] = test system: Proteus vulgaris; experiment: Minimum inhibitory concentration for antibacterial activity against Proteus vulgaris CN-329

| SMILES | MIC [1] [µg/mL] | MIC [2] [µg/mL] | MIC [3] [µg/mL] | MIC [4] [µg/mL] | MIC [5] [µg/mL] | MIC [6] [µg/mL] | MIC [7] [µg/mL] | MIC [8] [µg/mL] | MIC [9] [µg/mL] | MIC [10] [µg/mL] |
| --- | --- | --- | --- | --- | --- | --- | --- | --- | --- | --- |
| C[C@@H]([O-])[C@H]1C(=O)N2C(C(=O)[O-])=C(/C=C/C[N+]34CCC(CC3)CC4)[C@H](C)[C@H]12.[Na+] | 0.2 | 50 | 0.8 | 0.02 |  |  |  |  |  |  |
| C[C@@H]([O-])[C@H]1C(=O)N2C(C(=O)[O-])=C(/C=C/Cn3cc[n+]4ccccc34)[C@H](C)[C@H]12.[Na+] | 0.1 | 25 | 0.8 | 0.02 |  |  |  |  |  |  |
| C[C@@H](O)[C@H]1C(=O)N2C(C(=O)[O-])=C(/C=C/c3cccc[n+]3C)[C@H](C)[C@H]12 | 1.6 (≈ 4.87 µM) | 50 (≈ 152 µM) | 6.3 (≈ 19.2 µM) | 0.1 (≈ 0.305 µM) |  |  |  |  |  |  |
| C[C@@H](O)[C@H]1C(=O)N2C(C(=O)[O-])=C(C[n+]3ccccc3)[C@H](C)[C@H]12 | 0.1 (≈ 0.331 µM) | 1.6 (≈ 5.29 µM) | 6.3 (≈ 20.8 µM) | < 0.006 | 0.2 (≈ 0.662 µM) | 0.4 (≈ 1.32 µM) | 1.6 (≈ 5.29 µM) | 50 (≈ 165 µM) | 0.1 (≈ 0.331 µM) |  |
| C[C@@H](O)[C@H]1C(=O)N2C(C(=O)[O-])=C(/C=C/C[n+]3ccccc3)[C@H](C)[C@H]12 | 0.05 (≈ 0.152 µM) | 1.6 (≈ 4.87 µM) | 0.4 (≈ 1.22 µM) | 0.006 (≈ 0.0183 µM) | 0.2 (≈ 0.609 µM) |  | 0.8 (≈ 2.44 µM) | 50 (≈ 152 µM) | 0.05 (≈ 0.152 µM) | 0.2 (≈ 0.609 µM) |
| C[C@@H](O)[C@H]1C(=O)N2C(C(=O)[O-])=C(/C=C/c3cc[n+](C)cc3)[C@H](C)[C@H]12 | 0.4 (≈ 1.22 µM) | 25 (≈ 76.1 µM) | 1.6 (≈ 4.87 µM) | 0.05 (≈ 0.152 µM) |  |  |  |  |  |  |
| C[C@@H](O)[C@H]1C(=O)N2C(C(=O)[O-])=C(/C=C/c3ccc[n+](C)c3)[C@H](C)[C@H]12 | 0.1 (≈ 0.305 µM) | 25 (≈ 76.1 µM) | 0.2 (≈ 0.609 µM) | 0.01 (≈ 0.0305 µM) |  |  |  |  |  |  |
| C[C@@H](O)[C@H]1C(=O)N2C(C(=O)O)=C(SCCNC=N)C[C@H]12 [IMIPENEM ANHYDROUS] | 0.1 (≈ 0.334 µM) | 1.6 (≈ 5.34 µM) | 1.6 (≈ 5.34 µM) | 0.006 (≈ 0.02 µM) | 0.4 (≈ 1.34 µM) |  | 0.8 (≈ 2.67 µM) | 50 (≈ 167 µM) | 0.05 (≈ 0.167 µM) | 0.4 (≈ 1.34 µM) |

The next lines start with results.

| MIC [1] [µg/mL] | MIC [2] [µg/mL] | MIC [3] [µg/mL] | MIC [4] [µg/mL] | SMILES | MIC [5] [µg/mL] | MIC [6] [µg/mL] | MIC [7] [µg/mL] | MIC [8] [µg/mL] | MIC [9] [µg/mL] | MIC [10] [µg/mL] |
| --- | --- | --- | --- | --- | --- | --- | --- | --- | --- | --- |
| 0.1 (≈ 0.292 µM) | 6.3 (≈ 18.4 µM) | 0.8 (≈ 2.34 µM) | 0.02 (≈ 0.0584 µM) | C/C(=C\C1=C(C(=O)[O-])N2C(=O)[C@H]([C@@H](C)O)[C@H]2[C@H]1C)C[n+]1ccccc1 |  |  |  |  |  |  |
| 0.2 | 50 | 1.6 | 0.02 | C[C@@H](O)[C@H]1C(=O)N2C(C(=O)[O-])=C(/C=C/COC(N)=O)[C@H](C)[C@H]12.[Na+] |  |  |  |  |  |  |
| 0.2 (≈ 0.63 µM) | 1.6 (≈ 5.04 µM) | 6.3 (≈ 19.9 µM) | 0.006 (≈ 0.0189 µM) | C[C@@H](O)[C@H]1C(=O)N2C(C(=O)[O-])=C(C[n+]3cccc(N)c3)[C@H](C)[C@H]12 |  |  |  |  |  |  |
| 0.2 | 12.5 | 0.4 | 0.01 | C[C@@H]([O-])[C@H]1C(=O)N2C(C(=O)[O-])=C(/C=C/CSc3cc[n+](C)cc3)[C@H](C)[C@H]12.[Na+] |  |  |  |  |  |  |
| 0.4 (≈ 1.16 µM) | 1.6 (≈ 4.63 µM) | 25 (≈ 72.4 µM) | 0.02 (≈ 0.0579 µM) | C[C@@H](O)[C@H]1C(=O)N2C(C(=O)[O-])=C(C[n+]3ccc(C(N)=O)cc3)[C@H](C)[C@H]12 |  |  |  |  |  |  |
| 0.2 (≈ 0.541 µM) | 1.6 (≈ 4.33 µM) | 6.3 (≈ 17.1 µM) | 0.01 (≈ 0.0271 µM) | C[C@@H](O)[C@H]1C(=O)N2C(C(=O)[O-])=C(C[n+]3ccc(-c4cnco4)cc3)[C@H](C)[C@H]12 |  |  |  |  |  |  |
| 3.1 | 100 | 1.6 | 0.02 | C[C@@H](O)[C@H]1C(=O)N2C(C(=O)[O-])=C(/C=C/CSc3nncs3)[C@H](C)[C@H]12.[Na+] |  |  |  |  |  |  |
| 0.4 (≈ 1.16 µM) | 1.6 (≈ 4.63 µM) | 25 (≈ 72.4 µM) | 0.02 (≈ 0.0579 µM) | C[C@@H](O)[C@H]1C(=O)N2C(C(=O)[O-])=C(C[n+]3cccc(C(N)=O)c3)[C@H](C)[C@H]12 |  |  |  |  |  |  |
| 0.2 (≈ 0.632 µM) | 1.6 (≈ 5.06 µM) | 12.5 (≈ 39.5 µM) | 0.01 (≈ 0.0316 µM) | Cc1ccc[n+](CC2=C(C(=O)[O-])N3C(=O)[C@H]([C@@H](C)O)[C@H]3[C@H]2C)c1 |  |  |  |  |  |  |
